For the assay, the system named is L1210 leukemia ip in BDF1 mice, survival T/C. Description: NCI In Vivo Anticancer Drug Screen. Data for tumor model L1210 Leukemia (intraperitoneal) in B6D2F1 (BDF1) mice. Conditions: endpoint: mean survival time, higher = longer survival. The method, boiled down: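 Transplantable tumor model; survival measured in treated vs vehicle control mice. Value = treated/control.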

Where [1] appears, read: dose: 100.0 mg/kg/injection, schedule: Q04DX003 (ip), vehicle: Klucel (hydroxypropylcellulose) (HPC).
[2] abbreviates: dose: 200.0 mg/kg/injection, schedule: Q04DX003 (ip), vehicle: Klucel (hydroxypropylcellulose) (HPC).
[3] abbreviates: dose: 400.0 mg/kg/injection, schedule: Q04DX003 (ip), vehicle: Klucel (hydroxypropylcellulose) (HPC).
Where [4] appears, read: dose: 25.0 mg/kg/injection, schedule: Q04DX002 (ip), vehicle: Klucel (hydroxypropylcellulose) (HPC).
Where [5] appears, read: dose: 50.0 mg/kg/injection, schedule: Q04DX002 (ip), vehicle: Klucel (hydroxypropylcellulose) (HPC).
The mark [6] stands for this setting: dose: 100.0 mg/kg/injection, schedule: Q04DX002 (ip), vehicle: Klucel (hydroxypropylcellulose) (HPC).
Where [7] appears, read: dose: 12.5 mg/kg/injection, schedule: Q01DX009 (ip), vehicle: Klucel (hydroxypropylcellulose) (HPC).
The mark [8] stands for this setting: dose: 25.0 mg/kg/injection, schedule: Q01DX009 (ip), vehicle: Klucel (hydroxypropylcellulose) (HPC).

Several values for one entry are separate records, joined by “and”; a condition that tells them apart may be missing. Equal values may be shown once. Inconclusive results and toxic doses are left out.

Take `Cc1ccc(/C(O)=C\C(=S)SS)cc1`: the T/C is 108 % of control (dose: 100.0 mg/kg/injection, schedule: Q01DX001 (ip), vehicle: Klucel (hydroxypropylcellulose) (HPC)); 100 % of control (dose: 100.0 mg/kg/injection, schedule: Q01DX009 (ip), vehicle: saline); 97 % of control under setting [1]; 100 % of control (dose: 200.0 mg/kg/injection, schedule: Q01DX001 (ip), vehicle: Klucel (hydroxypropylcellulose) (HPC)); 102 % of control (dose: 200.0 mg/kg/injection, schedule: Q01DX009 (ip), vehicle: saline); 90 % of control under setting [2]. Also, the T/C is 97 % of control (dose: 400.0 mg/kg/injection, schedule: Q01DX001 (ip), vehicle: Klucel (hydroxypropylcellulose) (HPC)); 100 % of control (dose: 400.0 mg/kg/injection, schedule: Q01DX009 (ip), vehicle: saline); 92 % of control under setting [3].

Regarding `CCC1(CCC(C)C)C(=O)NC(=S)N(C)C1=O` (stereo not given), the T/C reads like this: (dose: 75.0 mg/kg/injection, schedule: Q01DX001 (ip), vehicle: carboxymethylcellulose (CMC)) 89 % of control; (dose: 75.0 mg/kg/injection, schedule: Q01DX001 (ip), vehicle: other) 97 % of control; (dose: 150.0 mg/kg/injection, schedule: Q01DX001 (ip), vehicle: carboxymethylcellulose (CMC)) 89 % of control; (dose: 150.0 mg/kg/injection, schedule: Q01DX001 (ip), vehicle: other) 103 % of control; (dose: 300.0 mg/kg/injection, schedule: Q01DX001 (ip), vehicle: carboxymethylcellulose (CMC)) 91 % of control; (dose: 300.0 mg/kg/injection, schedule: Q01DX001 (ip), vehicle: other) 121 % of control.

In the case of `Cc1ccc(S(=O)(=O)OC(c2ccccc2)c2ccccc2)cc1`, the T/C runs as follows: under setting [4], 97 % of control; under setting [5], 97 % of control; under setting [6], 93 % of control.

Turning to `O=[N+]([O-])c1ccc(C2CCCCC2)cc1`, the T/C is 109 % of control under setting [4], 109 % of control under setting [5] and 102 % of control under setting [6].

On to `COC(=O)c1ccc(Cl)c(NN)c1`, for which the T/C runs as follows: (dose: 100.0 mg/kg/injection, schedule: Q04DX003 (ip), vehicle: saline with Tween-80) 100 % of control; (dose: 200.0 mg/kg/injection, schedule: Q04DX003 (ip), vehicle: saline with Tween-80) 100 % of control; (dose: 400.0 mg/kg/injection, schedule: Q04DX003 (ip), vehicle: saline with Tween-80) 105 % of control.

Turning to `CCCCN(CCCC)CC(O)c1cc(Cl)cc2cccnc12` (stereo not given), the T/C runs as follows: under setting [7], 106 % of control; under setting [8], 98 % of control; (dose: 50.0 mg/kg/injection, schedule: Q01DX009 (ip), vehicle: Klucel (hydroxypropylcellulose) (HPC)) 109 % of control.

Consider `c1ccc(C2=NCN=C2c2ccccc2)cc1`, for which the T/C is, setting by setting: under setting [1], 99 % of control; under setting [2], 101 % of control; under setting [3], 92 % of control.

As to `COC(=O)c1nnn(S(=O)(=O)c2ccc(C)cc2)c1C(=O)OC`, the T/C was 91 % of control under setting [6]; 95 % of control (dose: 200.0 mg/kg/injection, schedule: Q04DX002 (ip), vehicle: Klucel (hydroxypropylcellulose) (HPC)); 91 % of control (dose: 400.0 mg/kg/injection, schedule: Q04DX002 (ip), vehicle: Klucel (hydroxypropylcellulose) (HPC)).

In the case of `CC(=O)c1cc2ccccc2oc1=O`, the T/C reads like this: (dose: 100.0 mg/kg/injection, schedule: Q01DX009 (ip), vehicle: gum acacia) 117 % of control; (dose: 200.0 mg/kg/injection, schedule: Q01DX009 (ip), vehicle: gum acacia) 108 % of control; (dose: 400.0 mg/kg/injection, schedule: Q01DX009 (ip), vehicle: gum acacia) 107 % of control.

Take `O=[N+]([O-])c1ccc(Cl)c(OCCCBr)c1`: the T/C is 108 % of control under setting [1], 95 % of control under setting [2] and 94 % of control under setting [3].

In the case of `COc1ccc(/C(C#N)=C/c2ccc(N(C)CCC#N)cc2)cc1`, the T/C under setting [7] is 103 % of control and the T/C under setting [8] is 100 % of control.

For the compound `Cc1nc(Cl)ncc1N`, the T/C is 100 % of control (dose: 100.0 mg/kg/injection, schedule: Q01DX001 (ip), vehicle: saline); 98 % of control (dose: 200.0 mg/kg/injection, schedule: Q01DX001 (ip), vehicle: saline); 98 % of control (dose: 400.0 mg/kg/injection, schedule: Q01DX001 (ip), vehicle: saline).

Turning to `CN(C)S(=O)(=O)c1ccc(NC(=O)CCl)cc1`, the T/C is, setting by setting: (dose: 100.0 mg/kg/injection, schedule: Q01DX001 (ip), vehicle: other) 98 % of control; (dose: 100.0 mg/kg/injection, schedule: Q01DX009 (ip), vehicle: saline with Tween-80) 106 % of control; (dose: 100.0 mg/kg/injection, schedule: Q04DX003 (ip), vehicle: other) 97 % of control; (dose: 200.0 mg/kg/injection, schedule: Q01DX001 (ip), vehicle: other) 110 % of control; (dose: 200.0 mg/kg/injection, schedule: Q01DX009 (ip), vehicle: saline with Tween-80) 102 % of control; (dose: 200.0 mg/kg/injection, schedule: Q04DX003 (ip), vehicle: other) 103 % of control. Also, the T/C (dose: 400.0 mg/kg/injection, schedule: Q01DX001 (ip), vehicle: other) was 93 % of control; the T/C (dose: 400.0 mg/kg/injection, schedule: Q01DX009 (ip), vehicle: saline with Tween-80) is 100 % of control; the T/C (dose: 400.0 mg/kg/injection, schedule: Q04DX003 (ip), vehicle: other) is 98 % of control.

Take `OC1C2c3ccccc3C(c3c2cc(F)c2ccccc32)C1O` (stereo not given): the T/C runs as follows: (dose: 37.5 mg/kg/injection, schedule: Q01DX001 (ip), vehicle: Klucel (hydroxypropylcellulose) (HPC)) 102 % of control; (dose: 75.0 mg/kg/injection, schedule: Q01DX001 (ip), vehicle: Klucel (hydroxypropylcellulose) (HPC)) 96 % of control; (dose: 150.0 mg/kg/injection, schedule: Q01DX001 (ip), vehicle: Klucel (hydroxypropylcellulose) (HPC)) 104 % of control.

For the compound `COc1cc2c(cc1OC)-c1cc3cc(OC)c(OC)cc3c(CCC(=O)O)[n+]1CC2`, the T/C reads like this: (dose: 20.0 mg/kg/injection, schedule: Q04DX002 (ip), vehicle: Klucel (hydroxypropylcellulose) (HPC)) 95 % of control; (dose: 40.0 mg/kg/injection, schedule: Q04DX002 (ip), vehicle: Klucel (hydroxypropylcellulose) (HPC)) 88 % of control; (dose: 80.0 mg/kg/injection, schedule: Q04DX002 (ip), vehicle: Klucel (hydroxypropylcellulose) (HPC)) 109 % of control.

As for `CCOC(=O)C1(NC(=O)N(CCCl)N=O)CCCCC1`, the T/C (dose: 16.0 mg/kg/injection, schedule: Q01DX001 (ip), vehicle: other) is 97 % of control; the T/C (dose: 31.0 mg/kg/injection, schedule: Q01DX001 (ip), vehicle: other) is 106 % of control; the T/C (dose: 125.0 mg/kg/injection, schedule: Q01DX001 (ip), vehicle: other) is 188 % of control and 220 % of control; the T/C (dose: 250.0 mg/kg/injection, schedule: Q01DX001 (ip), vehicle: other) is 296 % of control and 317 % of control; the T/C (dose: 375.0 mg/kg/injection, schedule: Q01DX001 (ip), vehicle: other) was 216 % of control; the T/C (dose: 500.0 mg/kg/injection, schedule: Q01DX001 (ip), vehicle: other) was 194 % of control and 322 % of control. The T/C was 331 % of control (dose: 750.0 mg/kg/injection, schedule: Q01DX001 (ip), vehicle: other) and 295 % of control (dose: 1000.0 mg/kg/injection, schedule: Q01DX001 (ip), vehicle: other).

Take `CC(C)=CCC(OC(=O)C=C(C)C)C1=CC(=O)c2c(O)ccc(O)c2C1=O` (stereo not given): the T/C is 93 % of control (dose: 6.25 mg/kg/injection, schedule: Q01DX009 (ip), vehicle: saline); 98 % of control (dose: 6.25 mg/kg/injection, schedule: Q04DX003 (ip), vehicle: saline); 92 % of control (dose: 12.5 mg/kg/injection, schedule: Q01DX009 (ip), vehicle: saline); 101 % of control (dose: 12.5 mg/kg/injection, schedule: Q04DX003 (ip), vehicle: saline); 104 % of control (dose: 25.0 mg/kg/injection, schedule: Q04DX003 (ip), vehicle: saline).

With `CCCCCCCCCCCCCCCCS(=O)(=O)N/N=C/c1cc(Cl)ccc1O`, the T/C was 94 % of control (dose: 100.0 mg/kg/injection, schedule: Q01DX001 (ip), vehicle: carboxymethylcellulose (CMC)); 92 % of control (dose: 200.0 mg/kg/injection, schedule: Q01DX001 (ip), vehicle: carboxymethylcellulose (CMC)); 92 % of control (dose: 400.0 mg/kg/injection, schedule: Q01DX001 (ip), vehicle: carboxymethylcellulose (CMC)).

For the origin of these results see PubChem BioAssay AID248 (DTP/NCI, 2004).
